# Test results from patent US6525050B1, “(4-oxo-2-pyrimidinyl)thioalkyl compounds useful as AICARFT inhibitors” (Agouron Pharmaceuticals, Inc., priority 1998, dated 2003).
# Biological target: AICARFT (Homo sapiens, UniProt P31939)
# Assay: AICARFT activity, spectrophotometric enzyme assay (modified Black et al.)
# Format: biochemical
# Conditions: 50 mM Tris-HCl pH 7.5, 25° C., absorbance at 298 nm, substrates AICAR and FTHF, steady-state rate
# Experimental: Enzymatic activity was measured spectrophotometrically using a modified assay developed by Black et al. (“A Rapid Assay for 5-Amino-4-imidazolecarboxamide Ribotide Transformylase,” Anal. Biochiem. 90 (1978), 397-401). The reaction volume was 1 mL and contained 50 mM Tris-HCl pH 7.5, 25 mM KCl, 20 mM 2-mercaptoethanol, variable concentrations of test compound in 1% DMSO, […] (5-aminoimidazole-4-carboxamideribonucleotide), […] tetrathydrofolate (FTHF), and 0.015 mM enzyme. The reaction was enzyme-initiated and followed by monitoring the increase in absorbance at 298 nm at 25° C. (ξ298=19.7×10^3 cm^−1M^−1). AICARFT inhibition constants (Ki) were determined from the dependence of the steady-state catalytic rate upon compound and substrate concentration.
# Sequence of AICARFT (P31939 whole entry): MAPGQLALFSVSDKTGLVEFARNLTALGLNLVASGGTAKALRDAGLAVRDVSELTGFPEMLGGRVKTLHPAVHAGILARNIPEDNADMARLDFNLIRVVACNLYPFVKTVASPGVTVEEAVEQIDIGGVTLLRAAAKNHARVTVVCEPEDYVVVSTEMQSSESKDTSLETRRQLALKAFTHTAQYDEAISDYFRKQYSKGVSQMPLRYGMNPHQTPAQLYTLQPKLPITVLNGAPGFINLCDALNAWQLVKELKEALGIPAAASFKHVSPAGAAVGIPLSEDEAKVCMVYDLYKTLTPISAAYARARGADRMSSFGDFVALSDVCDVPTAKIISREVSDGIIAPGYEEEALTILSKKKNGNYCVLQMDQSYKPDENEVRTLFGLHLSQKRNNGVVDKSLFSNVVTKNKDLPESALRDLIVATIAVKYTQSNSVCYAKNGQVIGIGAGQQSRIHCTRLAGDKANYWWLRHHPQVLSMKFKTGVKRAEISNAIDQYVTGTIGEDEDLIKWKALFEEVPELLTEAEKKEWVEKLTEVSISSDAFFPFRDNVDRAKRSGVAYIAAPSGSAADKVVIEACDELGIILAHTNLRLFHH
row,Ki [nM],SMILES
1,4,"N#Cc1c(-c2ccc(-c3cccs3)s2)nc(SCCCCCc2ccc(C(=O)NC(CCC(=O)O)C(=O)O)s2)[nH]c1=O (stereo not drawn) [Compound 10, N-(5-[5-([5-Cyano-6-(5-[2-thienyl]thien-2-yl)-4(3H)-oxopyrimidin-2-yl]thio)pentyl]theno-2-yl)glutamic acid]"
2,29,"N#Cc1c(-c2ccc(-c3cccs3)s2)nc(SCc2ccc(NS(=O)(=O)c3ccc(F)cc3)cc2Cl)[nH]c1=O [Compound 21, N-(3-Chloro-4-[([5-cyano-6-(5-[2-thienyl]thien-2-yl)-4(3H)-oxopyrimidin-2-yl]thio)methyl]phenyl) 4-fluorobenzenesulfonamide]"
3,400,"N#Cc1c(-c2ccc(-c3cccs3)s2)nc(SCc2ccc(S(=O)(=O)Nc3ccc(F)cc3)cc2Cl)[nH]c1=O [Compound 19, N-(4-Fluorophenyl) 4-[([5-cyano-6-(5-[2-thienyl]thien-2-yl)-4(3H)-oxopyrimidin-2-yl]thio)methyl]-3-chlorobenzenesulfonamide]"
4,270,"O=C(O)c1ccc(CCCCCSc2nc(-c3ccc(-c4ccccc4)cc3)cc(=O)[nH]2)s1 [Compound 5, 5-[5-([6-(4-Biphenylyl)-4(3H)-oxopyrimidin-2-yl]thio)pentyl]thiophene-2-carboxylic acid]"
5,1400,"N#Cc1c(-c2ccc(-c3cccs3)s2)nc(SCc2cccc(NS(=O)(=O)c3ccc(F)cc3)c2)[nH]c1=O [Compound 25, N(3-[([5-Cyano-6-(5-[2-thienyl]thien-2-yl)-4(3H)-oxopyrimidin-2-yl]thio)methyl]phenyl) 4-fluorobenzenesulfonamide]"
6,430,"Cc1ccc2cc(NS(=O)(=O)c3ccc(CSc4nc(-c5ccc(-c6cccs6)s5)c(C#N)c(=O)[nH]4)cc3)ccc2n1 [Compound 16, N-(2-Methylquinolin-6-yl) 4-[([5-cyan-6-(5-[2-thienyl]thien-2yl)-4(3H)-oxopyrimidin-2-yl]thio)methyl]benzenesulfonamide]"
7,40,"N#Cc1c(-c2ccc(-c3cccs3)s2)nc(SCCCCCc2ccc(C(=O)O)s2)[nH]c1=O [Compound 8, [5-([5-Cyano-6-(5-[2-thienyl]thien-2-yl)-4(3H)-oxopyrimidin-2-yl]thio)pentyl]thiopbene-2-carboxylic acid]"
8,430,"O=C(O)c1ccc(CCCCCSc2nc(-c3ccc(Oc4ccccc4)cc3)cc(=O)[nH]2)s1 [Compound 6, 5-[5-([6-(4-Phenoxypheuyl)-4(3H)-oxopyrimidin-2-yl]thio)pentyl]thiophene-2-carboxylic acid]"
9,2100,"CN(c1ccc(F)cc1)S(=O)(=O)c1ccc(CSc2nc(-c3ccc(-c4cccs4)s3)c(C#N)c(=O)[nH]2)cc1 [Compound 15, N-(4-Fluorophenyl)-N-methyl 4-[([5cyano-6-(5-[2-thienyl]thien-2-yl)-4(3H)-oxopyrimidin-2-yl]thio)methyl]benzenesulfonamide]"
10,8900,"O=C(O)CCC(NC(=O)c1ccc(CCSc2nc(-c3ccccc3)cc(=O)[nH]2)s1)C(=O)O (stereo not drawn) [Compound 12, N-(5-[2-([6-Phenyl-4(3H)-oxopyrimidin-2-yl]thio)ethyl]theno-2-yl)glutamic acid]"
11,6800,"O=C(O)CCC(NC(=O)c1ccc(CCCCSc2nc(-c3ccccc3)cc(=O)[nH]2)s1)C(=O)O (stereo not drawn) [Compound 11, N-(5-[5-([6-Phenyl-4(3H)-oxopyrimidin-2-yl]thio)butyl]thio2-yl)glutamic acid]"
12,1800,"CN(c1ccc(CSc2nc(-c3ccc(-c4cccs4)s3)c(C#N)c(=O)[nH]2)cc1)S(=O)(=O)c1ccc(F)cc1 [Compound 20, N-(4-[([5Cyano-6(5-[2-thienyl]thien-2-yl)-4(3 H)-oxopyrimidin-2-yl]thio)methyl]phenyl)-N-methyl 4-fluorobenzenesulfonamide]"
13,1000,"Cc1cc(CSc2nc(-c3ccc(-c4cccs4)s3)c(C#N)c(=O)[nH]2)ccc1NS(=O)(=O)c1ccc(F)cc1 [Compound 22, N-(4-[([5-Cyano-6-(5-[2-thienyl]thien-2-yl)4(3H)-oxopyrimidin-2-yl]thio)methyl]-2-methylphenyl) 4-fluorobenzenesulfonamide]"
14,83,"N#Cc1c(-c2ccc(-c3cccs3)s2)nc(SCc2ccc(S(=O)(=O)NCCc3c[nH]c4ccccc34)cc2)[nH]c1=O [Compound 27, N-(2-[1(H)-indol-3-yl]-ethyl) 4-[([5-cyano-6-(5-[2-thienyl]thien-2-yl)-4(3H)-oxopyrimidin-2-yl]thio)methyl]benzenesulfonamide]"
15,54700,"COC(=O)c1ccc(CCCCCSc2nc(-c3ccc(-c4ccccc4)cc3)cc(=O)[nH]2)s1 [Compound 4, Methyl 5-[5-([6-(4-biphenylyl)-4(3H)-oxopyrimidin-2-yl]thio)pentyl]-thiophene-2-carboxylate]"
16,370,"O=C(O)c1ccc(CCCCCSc2nc(-c3cccc(-c4nn[nH]n4)c3)cc(=O)[nH]2)s1 [Compound 26, 5-[5-([6-(3-[1(H)-Tetrazol-5-yl]phenyl)-4(3H)-oxopyrimidin-2-yl]thio)pentyl]thiophene-2-carboxylic acid]"
17,1000,"Cc1cc(CSc2nc(-c3ccc(-c4cccs4)s3)c(C#N)c(=O)[nH]2)ccc1S(=O)(=O)Nc1ccc(F)cc1 [Compound 17, N-(4-Fluorophenyl) 4-[([5-cyano-6-(5-[2-thienyl]thien-2-yl)-4(3H)-oxopyrimidin-2-yl]thio)methyl]-2-methylbenzenesulfonamide]"
18,460,"O=C(O)CCC(NC(=O)c1ccc(CCCCCSc2nc(-c3ccccc3)cc(=O)[nH]2)s1)C(=O)O (stereo not drawn) [Compound 9, N-(5-[5-([6-Phenyl-4(3H)-oxopyrimidin-2-yl]thio)pentyl]theno-2-yl)glutamic acid]"
19,590,"N#Cc1c(-c2ccc(-c3cccs3)s2)nc(SCc2ccc(S(=O)(=O)Nc3ccc(F)cc3)cc2)[nH]c1=O [Compound 14, N-(4-Fluorophenyl) 4-[([5-cyano-6-(5-[2-thienyl]thien-2-yl)-4(3H)-oxopyrimidin-2-yl]thio)methyl]benzenesulfonamide]"
20,380,"N#Cc1c(-c2ccc(-c3cccs3)s2)nc(SCc2ccc(NS(=O)(=O)c3ccc(F)cc3)cc2)[nH]c1=O [Compound 18, N-(4-[([5-Cyano-6-(5-[2-thienyl]thien-2-yl)-4(3H)-oxopyrimidin-2-yl]thio)methyl]phenyl) 4-fluorobenzenesulfonamide]"
21,5300,"O=C(O)CCC(NC(=O)c1ccc(CCCSc2nc(-c3ccccc3)cc(=O)[nH]2)s1)C(=O)O (stereo not drawn) [Compound 13, N-(5-[3-([6Phenyl-4(3H)-oxopyrimidin-2-yl]thio)propyl]theno-2-yl)glutamic acid]"
22,7200,"O=C(O)c1ccc(CCCSc2nc(-c3ccccc3)cc(=O)[nH]2)s1 [Compound 2, 5-(3-[(6-Phenyl-4(3H)-oxopyrimidin-2-yl)thio]propyl)thiophene-2-carboxylic acid]"
23,1300,COc1cc(CSc2nc(-c3ccc(-c4cccs4)s3)c(C#N)c(=O)[nH]2)ccc1NS(=O)(=O)c1ccc(F)cc1 [Compound 24]
24,220,"O=C(O)c1ccc(CCCCCSc2nc(-c3ccc(N4CCOCC4)cc3)cc(=O)[nH]2)s1 [Compound 7, 5-[5-([6-(4-Morpholinylphenyl)-4(3H)-oxopyrimidin-2-yl]thio)pentyl]-thiophene-2-carboxylic acid]"
25,3500,"O=C(O)c1ccc(CCCCCSc2nc(-c3ccccc3)cc(=O)[nH]2)s1 [Compound 1, 5-(5-[(6-Phenyl-4(3H)-oxopyrimidin-2-yl)thio]pentyl)thiophene2-carboxylic acid]"
26,280,"O=C(O)c1ccc(CCCCCSc2nc(-c3ccc(-c4cccs4)s3)cc(=O)[nH]2)s1 [Compound 3, 5-[5-([6-(5-[2-Thienyl]thien-2-yl)-4(3H)-oxopyrimidin-2-yl]thio)pentyl]thiophene-2-carboxylic acid]"
27,770,"COc1cc(NS(=O)(=O)c2ccc(F)cc2)ccc1CSc1nc(-c2ccc(-c3cccs3)s2)c(C#N)c(=O)[nH]1 [Compound 23, N-(4-[([5-Cyano-6-(5-[2-thienyl]thien-2-yl)-4(3H)-oxopyrimidin-2-yl]thio)methyl]-3-methoxyphenyl) 4-fluorobenzenesulfonamide]"
